Data: patent US11040981B2, “Pyrrolotriazine compounds and methods of inhibiting TAM kinases” (Syros Pharmaceuticals, Inc., priority 2017, dated 2021)

Experiments:
MERTK = biological target: T1, MERTK (Homo sapiens, UniProt Q12866); test: TR-FRET kinase activity assay, MERTK; assay type: biochemical; details: for IC50: TR-FRET activity assay, ATP at Km, 60 minutes, read-out: Mer IC50; for FLT3/Mer ratio (FLT3 IC50/Mer IC50): ratio of Mer to FLT3: FLT3 IC50/Mer IC50
T1 sequence (Q12866 21-999): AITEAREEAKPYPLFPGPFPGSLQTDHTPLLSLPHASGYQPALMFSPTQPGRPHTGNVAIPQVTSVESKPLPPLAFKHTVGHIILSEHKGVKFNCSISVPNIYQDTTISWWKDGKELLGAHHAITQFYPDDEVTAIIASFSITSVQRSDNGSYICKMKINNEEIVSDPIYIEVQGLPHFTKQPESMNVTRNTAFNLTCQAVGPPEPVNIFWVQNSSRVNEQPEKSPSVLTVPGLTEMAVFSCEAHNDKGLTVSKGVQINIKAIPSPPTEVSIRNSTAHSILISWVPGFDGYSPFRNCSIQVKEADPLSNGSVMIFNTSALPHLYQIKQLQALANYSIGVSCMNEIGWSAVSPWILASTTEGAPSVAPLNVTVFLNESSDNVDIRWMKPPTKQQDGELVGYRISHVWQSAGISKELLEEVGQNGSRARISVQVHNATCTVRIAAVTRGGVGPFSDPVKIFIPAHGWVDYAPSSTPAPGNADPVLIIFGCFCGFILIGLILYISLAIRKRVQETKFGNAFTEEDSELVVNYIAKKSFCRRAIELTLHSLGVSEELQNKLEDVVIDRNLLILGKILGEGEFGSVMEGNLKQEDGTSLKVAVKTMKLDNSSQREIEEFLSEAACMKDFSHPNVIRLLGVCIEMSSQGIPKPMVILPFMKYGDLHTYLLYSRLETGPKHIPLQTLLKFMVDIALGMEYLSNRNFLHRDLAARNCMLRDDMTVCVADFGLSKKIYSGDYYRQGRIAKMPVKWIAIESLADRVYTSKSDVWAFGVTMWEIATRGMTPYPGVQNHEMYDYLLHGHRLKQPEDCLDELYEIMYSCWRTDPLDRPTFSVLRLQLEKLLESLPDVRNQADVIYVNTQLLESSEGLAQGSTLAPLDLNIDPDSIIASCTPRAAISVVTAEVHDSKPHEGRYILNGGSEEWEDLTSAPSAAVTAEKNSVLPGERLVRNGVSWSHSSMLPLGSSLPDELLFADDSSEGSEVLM
Outline: (§1)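 Recombinant human kinases, fluorescent peptide substrate, ATP at Km; 1 h RT, pH 7.5. EDTA-quenched, Eu antibody added, TR-FRET read; IC50 determined.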

TYRO3 = biological target: T2, TYRO3 (Homo sapiens, UniProt Q06418); test: TR-FRET kinase activity assay, TYRO3; assay type: biochemical; details: ATP at Km, 60 minutes
T2 sequence (Q06418 41-890): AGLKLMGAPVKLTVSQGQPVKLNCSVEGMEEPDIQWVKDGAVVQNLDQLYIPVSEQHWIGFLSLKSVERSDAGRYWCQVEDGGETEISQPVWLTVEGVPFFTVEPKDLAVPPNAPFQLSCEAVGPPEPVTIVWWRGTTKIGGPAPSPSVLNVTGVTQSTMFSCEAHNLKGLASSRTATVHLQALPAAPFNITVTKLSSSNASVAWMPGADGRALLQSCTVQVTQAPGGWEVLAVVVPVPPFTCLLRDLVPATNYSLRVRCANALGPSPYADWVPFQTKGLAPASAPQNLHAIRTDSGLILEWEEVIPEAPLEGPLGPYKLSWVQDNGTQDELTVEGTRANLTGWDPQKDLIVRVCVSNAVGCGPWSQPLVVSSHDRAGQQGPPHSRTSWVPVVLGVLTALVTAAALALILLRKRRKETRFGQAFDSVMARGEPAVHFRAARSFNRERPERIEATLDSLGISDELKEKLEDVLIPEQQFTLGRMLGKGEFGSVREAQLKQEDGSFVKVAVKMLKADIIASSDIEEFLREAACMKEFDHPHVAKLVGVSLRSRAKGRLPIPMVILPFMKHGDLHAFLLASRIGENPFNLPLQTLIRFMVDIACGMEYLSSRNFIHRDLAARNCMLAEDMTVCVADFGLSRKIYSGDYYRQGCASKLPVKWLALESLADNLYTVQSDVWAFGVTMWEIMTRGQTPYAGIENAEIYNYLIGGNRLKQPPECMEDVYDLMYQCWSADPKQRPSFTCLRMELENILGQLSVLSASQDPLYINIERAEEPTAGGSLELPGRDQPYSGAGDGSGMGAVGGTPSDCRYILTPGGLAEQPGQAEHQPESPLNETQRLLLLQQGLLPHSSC
Outline: as §1

| SMILES | IC50 (MERTK) [nM] | FLT3/Mer ratio (FLT3 IC50/Mer IC50) (MERTK) | IC50 (TYRO3) [nM] |
| --- | --- | --- | --- |
| COC[C@H](C)Nc1ncc2c(-c3cnn(Cc4cnc(C)cn4)c3)cc([C@H]3CC[C@H](O)CC3)n2n1 [Compound 306] | ≤ 100 | +++ (“+++” represents a ratio of >100) | ≤ 100 |
| COC[C@H](C)Nc1ncc2c(-c3cnn(C(C)(C)C(=O)N4CC5(COC5)C4)c3)cc([C@H]3CC[C@H](O)CC3)n2n1 [Compound 326] | ≤ 100 | +++ (“+++” represents a ratio of >100) | ≤ 100 |
| COC[C@H](C)Nc1ncc2c(-c3cnn(C(C)(C)C(=O)N4CCS(=O)(=O)CC4)c3)cc([C@H]3CC[C@H](O)CC3)n2n1 [Compound 331, 1-(1,1-dioxidothiomorpholino)-2-(4-(7-((trans)-4-hydroxycyclohexyl)-2-(((S)-1-methoxypropan-2-yl)amino)pyrrolo[2,1-f][1,2,4]triazin-5-yl)-1H-pyrazol-1-yl)-2-methylpropan-1-one] | ≤ 100 | +++ (“+++” represents a ratio of >100) | ≤ 100 |
| CC[C@H](C)Nc1ncc2c(-c3ccc(CN4CCN(C)CC4)cc3)cc([C@H]3CC[C@H](O)CC3)n2n1 [Compound 118] | ≤ 100 | ++ (“++” represents a ratio of between 10 and 100) | ≤ 100 |
| COC[C@H](C)Nc1ncc2c(-c3ccnc(OC4CCN(C)CC4)c3)cc([C@H]3CC[C@H](O)CC3)n2n1 [Compound 342] | ≤ 100 | +++ (“+++” represents a ratio of >100) | ≤ 100 |
| COC[C@H](C)Nc1ncc2c(-c3cnn(Cc4noc(C)n4)c3)cc([C@H]3CC[C@H](O)CC3)n2n1 [Compound 285] | ≤ 100 | +++ (“+++” represents a ratio of >100) | ≤ 100 |
| C[C@@H](CC(F)(F)F)Nc1ncc2c(-c3cncc(C(=O)N(C)C)c3)cc([C@H]3CC[C@H](O)CC3)n2n1 [Compound 310] | ≤ 100 | +++ (“+++” represents a ratio of >100) | ≤ 100 |
| Cc1cc(-c2cc([C@H]3CC[C@H](O)CC3)n3nc(N[C@@H](C)C(F)F)ncc23)ccn1 [Compound 309] | ≤ 100 | +++ (“+++” represents a ratio of >100) | ≤ 100 |
| CNC(=O)c1ncc(-c2cc([C@H]3CC[C@H](O)CC3)n3nc(N[C@@H](C)COC)ncc23)cn1 [Compound 334] | ≤ 100 | +++ (“+++” represents a ratio of >100) | ≤ 100 |
| COC[C@H](C)Nc1ncc2c(-c3ccnc(N4CCNC(=O)C4)c3)cc([C@H]3CC[C@H](O)CC3)n2n1 [Compound 340] | ≤ 100 | +++ (“+++” represents a ratio of >100) | ≤ 100 |
| C[C@@H](CC(F)(F)F)Nc1ncc2c(-c3cncc(C(=O)N4CCOCC4)c3)cc([C@H]3CC[C@H](O)CC3)n2n1 [Compound 311] | ≤ 100 | +++ (“+++” represents a ratio of >100) | ≤ 100 |
| CNc1c(N[C@H]2CC[C@H](c3cc(-c4ccc(CN5CCOCC5)cc4)c4cnc(N[C@@H](C)COC)nn43)CC2)c(=O)c1=O [Compound 316, 3-(((trans)-4-(2-(((S)-1-methoxypropan-2-yl)amino)-5-(4-(morpholinomethyl)phenyl)pyrrolo[2,1-f][1,2,4]triazin-7-yl)cyclohexyl)amino)-4-(methylamino)cyclobut-3-ene-1,2-dione] | ≤ 100 | ++ (“++” represents a ratio of between 10 and 100) | ≤ 100 |
